Measurements: PubChem BioAssay (NCI)
Where “and” joins values, the source holds several entries; their conditions need not be identical. Equal entries are not always repeated.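 Dose response: 5 concentrations. Exposure: 48 h. Format: 96-well plates. Endpoint: linear interpolation; highest concentration if not reached. GI50: concentration for 50% inhibition of growth. The concentration for full growth arrest is given as TGI.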

What was measured:
Test in all cases: NCI tumour cell line growth inhibition, 48 h
KM12 colon = test system: KM12 colon
COLO 205 colon = test system: COLO 205 colon
CAKI-1 renal = test system: CAKI-1 renal
SK-MEL-5 melanoma = test system: SK-MEL-5 melanoma
UO-31 renal = test system: UO-31 renal
SK-MEL-28 melanoma = test system: SK-MEL-28 melanoma
M14 melanoma = test system: M14 melanoma
OVCAR-3 ovarian = test system: OVCAR-3 ovarian
SN12C renal = test system: SN12C renal
OVCAR-8 ovarian = test system: OVCAR-8 ovarian

O=C1NNC(=O)c2ccccc2SSc2ccccc2C(=O)NNC(=O)c2ccccc2SSc2ccccc21
GI50 (KM12 colon): 42.3 µM
TGI (KM12 colon): 50 µM and > 100 µM
TGI (COLO 205 colon): 50 µM
GI50 (CAKI-1 renal): 18.1 µM
TGI (CAKI-1 renal): 50 µM and > 100 µM
GI50 (SK-MEL-5 melanoma): 42.1 µM
TGI (SK-MEL-5 melanoma): 50 µM and > 100 µM
TGI (UO-31 renal): > 100 µM
GI50 (SK-MEL-28 melanoma): 23.1 µM
TGI (SK-MEL-28 melanoma): 50 µM and > 100 µM
GI50 (M14 melanoma): 6.28 µM
TGI (M14 melanoma): 50 µM and 32.5 µM
TGI (OVCAR-3 ovarian): 50 µM and > 100 µM
GI50 (SN12C renal): 17 µM
TGI (SN12C renal): 50 µM and > 100 µM
GI50 (OVCAR-8 ovarian): 15.4 µM
TGI (OVCAR-8 ovarian): 50 µM and > 100 µM
